From patent publication US10273228B2, “Hepatitis B viral assembly effectors” (Indiana University Research and Technology Corporation, priority 2015, dated 2019)

Columns and labels:
AD38 cells = assay: AD38 viability normalized to DMSO control; format: cell-based; settings: 10 μM compound, vs DMSO control; Table 6
Method: (§1) AD38 cells were then re-suspended with 10 mL of treatment medium and counted. Wells of a collagen coated 96-well NUNC microtiter plate were seeded at 50,000/well in 180 μL of treatment medium, and 20 μL of either 10% DMSO (Control) or a 10× solution of test compound in 10% DMSO in treatment media was added for a final compound concentration 1, 3, or 10 μM (1.0% final [DMSO]) and plates were incubated for 6 days at 37° C.

[1] = test system: HBV viral load, AD38 cells; assay: Activity of test compounds on viral production from AD38 cells (viral load by quantitative PCR of the core sequence in supernatant); format: cell-based, Hepatitis B virus; settings: Hepatitis B virus, 144 h, 10 μM compound, 6 days at 37° C., vs DMSO control wells; Table 6; read-out: AD38 Viral Load (CpAM/DMSO %) at 10 μM
Method: as §1
Subsequently viral load production was assayed by quantitative PCR of the core sequence. Briefly, 5 μL of clarified supernatant was added to a PCR reaction mixture that contained forward primers HBV-f 5′-CTGTGCCTTGGGTGGCTTT-3′, Reverse primers HBV-r 5′-[…]-3′ and Fluorescent TaqMan™ Probes HBV-probe 5′-FAM/AGCTCCAAA/ZEN/[…]/3IABkFQ-3′ in Quanta Biosciences PerfeCTa® qPCR Toughmix®, and was subsequently on an Applied Biosystems VIIA7 in a final volume of 20 μL. The PCR mixture was incubated at 45° C. for 5 minutes, then 95° C. for 10 min, followed by 40 cycles of 10 seconds at 95° C. and 20 seconds at 60° C. Viral load was quantitated against known standards by using ViiA™ 7 Software. Viral load in the supernatant from wells with treated cells were compared against viral load in supernatant from DMSO control wells (≥3 per plate).

Structure (SMILES) | AD38 Viability Normalized Result (CPAM/DMSO %) at 10 μM (AD38 cells) [%] | activity at 10 µM [1] [%]
Cc1ccc(Nc2cc(C)nc(N3CCN(S(=O)(=O)c4cccnc4)CC3)n2)cc1 [Compound 1133] | 108 | 35
Cc1ccc(Nc2cc(C)nc(N3CCN(S(=O)(=O)c4c[nH]cn4)CC3)n2)cc1 [Compound 1134] | 123 | 32
Cc1ccc(Nc2cc(C)nc(N3CCN(S(=O)(=O)c4cccc5ccccc45)CC3)n2)cc1 [Compound 1135] | 107 | 16
Cc1ccc(Nc2cc(C)nc(N3CCN(S(=O)(=O)c4ccc(Oc5ccccc5)cc4)CC3)n2)cc1 [Compound 1136] | 113 | 24
COc1ccc(S(=O)(=O)N2CCN(c3nc(Nc4ccc(C)cc4)cc(N(C)C)n3)CC2)cc1 [Compound 1143] | 107 | 8
COc1ccc(S(=O)(=O)N2CCN(c3nc(Nc4ccc(C)cc4)cc(N4CCCC4)n3)CC2)cc1 [Compound 1144] | 100 | 12
Cc1ccc(Nc2cc(C)nc(N3CCN(S(=O)(=O)c4cccs4)CC3)n2)cc1 [Compound 1146] | 106 | 15
COc1ccc(S(=O)(=O)N2CCN(c3cc(C)nc(Nc4ccc(C)cc4)n3)CC2)cc1 [Compound 1150] | 89 | 4
COc1cccc(S(=O)(=O)N2CCN(c3cc(C)nc(Nc4ccc(C)cc4)n3)CC2)c1 [Compound 1151] | 73 | 1
COc1ccc(S(=O)(=O)N2CCN(c3nc(C)cc(Oc4ccc(C)cc4)n3)CC2)cc1 [Compound 1152] | 107 | 20
Cc1ccc(Nc2cc(C)nc(N3CCN(S(=O)(=O)c4ccccc4C)CC3)n2)cc1 [Compound 1153] | 109 | 21
COc1ccc(S(=O)(=O)N2CCN(c3nc(Nc4ccc(C)cc4)cc(OC)n3)CC2)cc1 [Compound 1157] | 96 | 35
COc1ccc(S(=O)(=O)N2CCN(c3cccc(Nc4ccc(C)cc4)n3)CC2)cc1 [Compound 1158] | 92 | 51
COc1ccc(S(=O)(=O)N2CCN(c3nc(C)cc(Sc4ccc(C)cc4)n3)CC2)cc1 [Compound 1159] | 95 | 81
COc1ccc(S(=O)(=O)N2CCN(c3nc(C)cc(S(=O)(=O)c4ccc(C)cc4)n3)CC2)cc1 [Compound 1160, 2-(4-((4-methoxyphenyl)sulfonyl)piperazin-1-yl)-4-methyl-6-tosylpyrimidine] | 110 | 60
Cc1ccc(Nc2cc(C)nc(N3CCN(S(=O)(=O)c4ccc5[nH]c(=O)[nH]c5c4)CC3)n2)cc1 [Compound 1167] | 108 | 36
COc1cccc(S(=O)(=O)N2CCN(c3cccc(Nc4ccc(C)cc4)n3)CC2)c1 [Compound 1168] | 100 | 51
COc1ccc(S(=O)(=O)N2CCN(c3cc(C)cc(Nc4ccc(C)cc4)n3)CC2)cc1 [Compound 1172] | 107 | 21
COc1cccc(S(=O)(=O)N2CCN(c3cc(C)cc(Nc4ccc(C)cc4)n3)CC2)c1 [Compound 1173] | 105 | 9
COc1ccc(S(=O)(=O)N2CCN(c3nc(Nc4ccc(C)cc4)cc(N4CCOCC4)n3)CC2)cc1 [Compound 1179] | 103 | 45
COc1ccc(S(=O)(=O)N2CCN(c3nc(C)cc(Nc4cncnc4)n3)CC2)cc1 [Compound 1186] | 106 | 76
COc1ccc(S(=O)(=O)N2CCN(c3nc(C)cc(Nc4ccc5ccccc5c4)n3)CC2)cc1 [Compound 1188] | 105 | 52
COc1ccc(S(=O)(=O)N2CCN(c3nc(Nc4ccc(C)cc4)cc(N4CCCCC4)n3)CC2)cc1 [Compound 1190] | 83 | 72
COc1ccc(S(=O)(=O)N2CCN(c3nc(C)cc(Nc4ccc(C)nc4)n3)CC2)cc1 [Compound 1194] | 109 | 64
